Data taken from US5633263A, “Linear somatostatin analogs” (The Administrators of the Tulane Educational Fund, priority 1994, dated 1997).
Where a SMILES comes first, the peptide text is derived from it. [ ]: non-standard residue; d: D form.

Key:
[1] = system: [125I-Tyr11]SRIF-14 binding to crude membrane preparations from human small cell lung carcinoma (NCI-H69) cells; assay: Inhibition of [125I]SRIF-14 binding, SCLC membranes; settings: [125I]SRIF-14 approximately 0.05 nM, read-out: IC50 (nM) SCLC, inhibition of I125 SRIF-14 binding
Experimental: (§1) Crude membrane preparations were obtained from rat pancreas, cerebral cortex, or human small cell lung carcinoma (NCI-H69) cells by homogenizing (Polytron, setting 6, 15 sec) the tissues or cells in ice-cold 50 mM Tris-HCl and centrifuging twice at 39,000× g (10 min), with an intermediate resuspension in fresh buffer. The final pellets were resuspended in 10 mM Tris-HCl for assay. Aliquots of the membrane preparation were incubated for 25 min at 30° C. with labeled somatotropin-release-inhibiting factor, [^125 I-Tyr^11 ] SRIF-14 (2000 Ci/mmol, Amersham Corp.), in 50 mM HEPES (pH 7.4) containing bovine serum albumin (10 mg/ml; fraction V, Sigma Chem.), MgCl2 (5mM), Trasylol (200 KIU/ml), bacitracin (0.02 mg/ml), and phenylmethylsulphonyl fluoride (0.02 mg/ml). The final assay volume was 0.3 ml. The incubations were terminated by rapid filtration through Whatman GF/C filters (pre-soaked in 0.3% polyethylenimine) under reduced pressure. Each tube and filter were then washed three times with 5 ml aliquots of ice-cold buffer. Specific binding was defined as the total [^125 I]SRIF-14 bound minus that bound in the presence of 200 nM unlabelled SRIF-14.
(§2) Table 1 gives results of inhibition of [^125 I]SRIF-14 binding by linear peptides of the invention. The concentration of [^125 I]SRIF-14 was approximately 0.05 nM. […]

[2] = target: [125I-Tyr11]SRIF-14 binding to crude membrane preparations from rat cerebral cortex; assay: Inhibition of [125I]SRIF-14 binding, brain membranes; settings: [125I]SRIF-14 approximately 0.05 nM, read-out: IC50 (nM) Brain, inhibition of I125 SRIF-14 binding
Experimental: as §1, §2

[3] = target: [125I-Tyr11]SRIF-14 binding to crude membrane preparations from rat pancreas; assay: Inhibition of [125I]SRIF-14 binding, pancreas membranes; settings: for IC50: rat pancreas membranes, [125I]SRIF-14 approximately 0.05 nM, read-out: IC50 (nM) Pancreas, inhibition of I125 SRIF-14 binding
Experimental: as §1
Table 1 gives results of inhibition of [^125 I]SRIF-14 binding by linear peptides of the invention. The concentration of [^125 I]SRIF-14 was approximately 0.05 nM. (Values in parenthesis indicate the number of independent determinations.) The IC50 (concentration of analog resulting is 50% competitive inhibition) in nM values are indicated for pancreas, small cell lung carcinoma (SCLC), and brain. […] Peptide DC-23-85, which is not within the invention, inhibits the binding of I^125 SRIF-14 only poorly.

inhibiting the binding of I125 SRIF-14 (in words) ([3]; summary in words of Table 1 (pancreas, SCLC, brain)) | Compound | IC50 [1] [nM] | IC50 [2] [nM] | IC50 [3] [nM]
particularly effective | C[C@@H](O)[C@H](NC(=O)[C@H](Cc1ccccc1)NC(=O)[C@@H](NC(=O)[C@H](CCCCN)NC(=O)[C@@H](Cc1c[nH]c2ccccc12)NC(=O)[C@H](Cc1ccccc1)NC(=O)[C@H](Cc1ccccc1)NC(=O)[C@H](N)Cc1ccccc1)[C@@H](C)O)C(N)=O [BIM-23052/DC-23-99, D-Phe-Phe-Phe-D-Trp-Lys-Thr-Phe-Thr-NH2] (H-[dF]FF[dW]KTFT-NH2) | 1.2 | 7.3 | 9.4
 | C[C@H](N)C(=O)NCC(=O)N[C@H]1CSSC[C@@H](C(=O)O)NC(=O)[C@H](CO)NC(=O)[C@H]([C@@H](C)O)NC(=O)[C@H](Cc2ccccc2)NC(=O)[C@H]([C@@H](C)O)NC(=O)[C@H](CCCCN)NC(=O)[C@H](Cc2c[nH]c3ccccc23)NC(=O)[C@H](Cc2ccccc2)NC(=O)[C@H](Cc2ccccc2)NC(=O)[C@H](CC(N)=O)NC(=O)[C@H](CCCCN)NC1=O [Somatostatin, Ala-Gly-Cys-Lys-Asn-Phe-Phe-Trp-Lys-Thr-Phe-Ser-OH] | 4.2 | 0.53 | 0.53
